The results in this text go back to ChEMBL document CHEMBL1201862, “PubChem BioAssay data set” (2004).

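Results reflect a 48-hour exposure of cells in 96-well plates to compound at five concentrations. Here, GI50 denotes the concentration required for 50% inhibition of growth.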 The source made the active and inactive calls. Rule as the data show it: active = GI50 up to about 1.1 µM and inactive = higher.

Broadly, the GI50 is the concentration at which growth is held to half of that of the control.

Some test systems named below: EKVX; HCC 2998; HCT-116; K562; PC-3; Malme-3M; NCI-H226; OVCAR-4; 786-0; A549; DU-145; CCRF-CEM; SK-OV-3; SF-539; NCI/ADR-RES; UACC-257; OVCAR-8; SNB-19; MDA-MB-435; LOX IMVI.
What all share (assay): DTP human tumour cell line panel, 48 h

Consider `CN1CCc2ccccc2C1Cc1ccccc1NC(=O)c1sc2ccccc2c1Cl` (stereo unspecified), for which the GI50 in the experiment on EKVX, in the experiment with HCC 2998, in the experiment with HCT-116, with K562, with PC-3 and with Malme-3M was > 100 µM (inactive) throughout. Also, the GI50 was > 100 µM (inactive) with NCI-H226; > 100 µM (inactive) with OVCAR-4; > 100 µM (inactive) in the experiment on 786-0; > 100 µM (inactive) with A549; > 100 µM (inactive) in the experiment on DU-145; 50.9 µM (inactive) in the experiment with CCRF-CEM. Further, the GI50 with SK-OV-3, with SF-539, in the experiment on NCI/ADR-RES, with UACC-257, with OVCAR-8 and in the experiment on SNB-19 was > 100 µM (inactive) in each case. Further, the GI50 in the experiment with MDA-MB-435 was > 100 µM (inactive).
For the compound `C[C@H](O)C1CC(Cn2nnc3c(N)ncnc32)C1(C)C` (stereo partly specified), the GI50 in the experiment with EKVX was > 100 µM (inactive); with HCC 2998, > 100 µM (inactive); in the experiment with HCT-116, > 100 µM (inactive); in the experiment on K562, < 0.01 µM (active); in the experiment with PC-3, > 100 µM (inactive); in the experiment with NCI-H226 it was > 100 µM (inactive). Moreover, the GI50 with LOX IMVI, with OVCAR-4, with 786-0, in the experiment on A549, in the experiment on DU-145 and in the experiment on CCRF-CEM was > 100 µM (inactive) throughout. Besides, the GI50 in the experiment with SK-OV-3, in the experiment with SF-539, in the experiment with NCI/ADR-RES, in the experiment with UACC-257, in the experiment on SNB-19 and with MDA-MB-435 was > 100 µM (inactive) in each case.
With `CCOP(=O)(OCC)/C(C#N)=C/c1nccn1C`, the GI50 with EKVX, with HCC 2998, in the experiment on HCT-116, in the experiment with K562, with PC-3 and with NCI-H226 was > 100 µM (inactive) in each case. Also, the GI50 with LOX IMVI, in the experiment with 786-0, with A549, with DU-145, in the experiment with CCRF-CEM and in the experiment with SF-539 was > 100 µM (inactive) throughout. For the same compound, the GI50 in the experiment on NCI/ADR-RES, in the experiment on UACC-257, in the experiment on OVCAR-8, in the experiment with SNB-19 and in the experiment on MDA-MB-435 was > 100 µM (inactive) in each case.
In the case of `COc1cc(/C=N\NC(=O)C[N+](C)(C)C)cc(OC)c1OC`, the GI50 in the experiment on HCC 2998, in the experiment with HCT-116, with K562, with PC-3, in the experiment with Malme-3M and with LOX IMVI was > 10 µM (inactive) in each case. The GI50 with OVCAR-4, in the experiment with 786-0, in the experiment with A549, in the experiment on DU-145, in the experiment on CCRF-CEM and with SK-OV-3 was > 10 µM (inactive) throughout. The GI50 in the experiment with SF-539, with NCI/ADR-RES, in the experiment with UACC-257, in the experiment with OVCAR-8, in the experiment on SNB-19 and with MDA-MB-435 was > 10 µM (inactive) throughout.
For the compound `CCc1c[n+]([O-])c(C)cc1[N+](=O)[O-]`, the GI50 with EKVX is 29.6 µM (inactive); in the experiment with HCC 2998 it was 24.3 µM (inactive); in the experiment on HCT-116, 26.3 µM (inactive); with K562 it was 48.6 µM (inactive); in the experiment with PC-3, > 100 µM (inactive); in the experiment on Malme-3M, 40.1 µM (inactive). Further, the GI50 in the experiment on LOX IMVI was > 100 µM (inactive); with 786-0 it was 97.1 µM (inactive); with A549 it was 56.1 µM (inactive); with DU-145, 28 µM (inactive); in the experiment on CCRF-CEM it was > 100 µM (inactive); with SK-OV-3, > 100 µM (inactive). Also, the GI50 in the experiment on SF-539 was > 100 µM (inactive); in the experiment on NCI/ADR-RES, > 100 µM (inactive); in the experiment on UACC-257 it was > 100 µM (inactive); with OVCAR-8, 46.2 µM (inactive); with SNB-19, > 100 µM (inactive); with MDA-MB-435, 57.9 µM (inactive).
As to `C=C1CC2(CCOc3ccc(Cl)cc32)OC1=O` (stereo unspecified), the GI50 in the experiment with EKVX was 3.42 µM (inactive); in the experiment on HCC 2998, 22.5 µM (inactive); in the experiment on HCT-116, 1.63 µM (inactive); with K562, 2.55 µM (inactive); in the experiment on PC-3, 1.95 µM (inactive); in the experiment with NCI-H226, 2.81 µM (inactive). Also, the GI50 is 2.44 µM (inactive) in the experiment with LOX IMVI; 1.91 µM (inactive) with OVCAR-4; 2.15 µM (inactive) in the experiment with 786-0; 13.5 µM (inactive) with A549; 12.7 µM (inactive) with DU-145; 1.45 µM (inactive) in the experiment on CCRF-CEM. For the same compound, the GI50 is 13.1 µM (inactive) with SK-OV-3; 0.284 µM (active) in the experiment with SF-539; 6.47 µM (inactive) in the experiment with NCI/ADR-RES; 5.74 µM (inactive) in the experiment on UACC-257; 4.59 µM (inactive) in the experiment with OVCAR-8; 13.1 µM (inactive) in the experiment on SNB-19. The GI50 in the experiment on MDA-MB-435 was 2.82 µM (inactive).
`CC1(C)[C@@H](Cn2cc(I)c(=O)[nH]c2=O)CC[C@@]1(C)CO`: the GI50 in the experiment on EKVX is > 100 µM (inactive); in the experiment on HCC 2998, > 100 µM (inactive); with HCT-116 it was > 100 µM (inactive); with K562, 45.1 µM (inactive); in the experiment with PC-3, > 100 µM (inactive); with NCI-H226 it was > 100 µM (inactive). For the same compound, the GI50 in the experiment with LOX IMVI, with OVCAR-4, in the experiment with 786-0, with A549, in the experiment with DU-145 and with CCRF-CEM was > 100 µM (inactive) in each case. The GI50 in the experiment with SK-OV-3, in the experiment with NCI/ADR-RES, in the experiment on UACC-257, with SNB-19 and in the experiment with MDA-MB-435 was > 100 µM (inactive) in each case.
On to `CCCCCCCCCCCCCCCCS(=O)(=O)c1ccc(NN)cc1`, for which the GI50 in the experiment with EKVX was > 10 µM (inactive); with HCC 2998 it was > 10 µM (inactive); with HCT-116 it was 4.76 µM (inactive); with K562, 2.71 µM (inactive); with PC-3 it was 2.83 µM (inactive); in the experiment on Malme-3M it was > 10 µM (inactive). Moreover, the GI50 with LOX IMVI was 4.29 µM (inactive); in the experiment with OVCAR-4, 8.17 µM (inactive); with 786-0, > 10 µM (inactive); in the experiment on A549 it was 5.27 µM (inactive); in the experiment on DU-145, > 10 µM (inactive); in the experiment with CCRF-CEM, 1.63 µM (inactive). Further, the GI50 is > 10 µM (inactive) in the experiment on SK-OV-3; 7.43 µM (inactive) in the experiment on SF-539; > 10 µM (inactive) in the experiment on NCI/ADR-RES; > 10 µM (inactive) in the experiment on UACC-257; 6.53 µM (inactive) with OVCAR-8; > 10 µM (inactive) with SNB-19. In addition, the GI50 in the experiment with MDA-MB-435 is > 10 µM (inactive).
`Cc1ccc(/N=N/C(=NNC(=O)c2ccc(C)cc2)c2ccc(N(C)C)cc2)cc1`: the GI50 was 30.1 µM (inactive) with EKVX; 27.4 µM (inactive) with HCC 2998; 24.2 µM (inactive) with HCT-116; 24.9 µM (inactive) with K562; 42.6 µM (inactive) with PC-3; 23.8 µM (inactive) with NCI-H226. For the same compound, the GI50 was 33.4 µM (inactive) with LOX IMVI; 18.5 µM (inactive) in the experiment with OVCAR-4; 33.3 µM (inactive) in the experiment on 786-0; 28.6 µM (inactive) with A549; 20.8 µM (inactive) in the experiment with DU-145; 23.7 µM (inactive) in the experiment on SK-OV-3. The GI50 is 43 µM (inactive) with SF-539; 41.3 µM (inactive) in the experiment with NCI/ADR-RES; 21.9 µM (inactive) with UACC-257; 31.8 µM (inactive) with OVCAR-8; 24.8 µM (inactive) with SNB-19; 16.6 µM (inactive) with MDA-MB-435.
In the case of `COc1ccc(/C=N/n2c(C)n[nH]c2=O)cc1`, the GI50 is 85.7 µM (inactive) in the experiment on EKVX; > 100 µM (inactive) with HCC 2998; > 100 µM (inactive) in the experiment with HCT-116; > 100 µM (inactive) in the experiment on K562; > 100 µM (inactive) in the experiment with PC-3; > 100 µM (inactive) in the experiment on Malme-3M. In addition, the GI50 with NCI-H226 is > 100 µM (inactive); in the experiment on OVCAR-4 it was 42.8 µM (inactive); in the experiment on 786-0 it was > 100 µM (inactive); in the experiment on A549 it was > 100 µM (inactive); with DU-145, > 100 µM (inactive); in the experiment on CCRF-CEM it was > 100 µM (inactive). Further, the GI50 in the experiment on SK-OV-3, in the experiment with SF-539, with NCI/ADR-RES, in the experiment with UACC-257, in the experiment on OVCAR-8 and in the experiment on SNB-19 was > 100 µM (inactive) throughout. Moreover, in the experiment on MDA-MB-435, the GI50 was > 100 µM (inactive).
In the case of `O=C1CSC(c2cccc(Cl)c2)N1c1ccc(-n2c(-c3ccccc3)nc3ccccc3c2=O)cc1` (stereo unspecified), the GI50 was > 100 µM (inactive) in the experiment with EKVX; 43.7 µM (inactive) in the experiment with HCC 2998; 53 µM (inactive) in the experiment with HCT-116; 51.6 µM (inactive) with K562; 51.3 µM (inactive) in the experiment on PC-3; > 100 µM (inactive) with Malme-3M. For the same compound, the GI50 with LOX IMVI is 46.2 µM (inactive); with OVCAR-4, 18.7 µM (inactive); with 786-0 it was > 100 µM (inactive); in the experiment with A549 it was > 100 µM (inactive); with DU-145 it was > 100 µM (inactive); with CCRF-CEM it was 40 µM (inactive). Besides, the GI50 in the experiment on SK-OV-3 was 88.7 µM (inactive); in the experiment on SF-539 it was 67.1 µM (inactive); in the experiment on NCI/ADR-RES it was 25.5 µM (inactive); in the experiment with UACC-257 it was > 100 µM (inactive); in the experiment on OVCAR-8, 79.8 µM (inactive); in the experiment on SNB-19 it was > 100 µM (inactive). Further, the GI50 in the experiment with MDA-MB-435 is 45.8 µM (inactive).
